Reference: patent publication US11407715B2, “Substituted indoline derivatives as dengue viral replication inhibitors” (JANSSEN PHARMACEUTICALS, INC., priority 2017, dated 2022)

Legend:
[1] = tested on: DENV-2 16681 strain; assay: microbe, parasite or virus in culture; format: cell-based, Dengue virus; conditions: for EC50: DENV-2 16681 eGFP, Vero cells, MOI 0.5, 3 days; for SI: SI=CC50/EC50, DENV-2 antiviral assay
[2] = in vitro; conditions: African green monkey
[3] = tested on: Vero cells; conditions: African green monkey
[4] = Dengue virus, DENV2, Vero, 72 h

Row | Structure (SMILES) | EC50 [1] | SI [1] | CC50 [2] | CC50 [3] | EC50 [1, 4]
1 | COc1cc(NC(C(=O)N2CCc3cc(OC)c(Cl)cc32)c2ccc(Cl)cc2)cc(OC2CC(C(=O)O)C2)c1 (stereo not drawn) [Compound 32, (1s,3s)-3-(3-((2-(6-chloro-5-methoxyindolin-1-yl)-1-(4-chlorophenyl)-2-oxoethyl)amino)-5-methoxyphenoxy)cyclobutanecarboxylic Acid] | 0.13 nM | 130935 | 15 µM | – | –
2 | COc1cc(NC(C(=O)N2CCc3cc(OC)c(C(F)(F)F)cc32)c2ccc(Cl)cc2)cc(OCC2CC(C(=O)O)C2)c1 (stereo not drawn) [Compound 25, (1r,3r)-3-((3-((1-(4-chlorophenyl)-2-(5-methoxy-6-(trifluoromethyl)indolin-1-yl)-2-oxoethyl)amino)-5-methoxyphenoxy)methyl)-cyclobutanecarboxylic Acid] | 0.45 nM | 26800 | – | 12 µM | –
3 | COc1cc(CCCC(=O)O)cc(NC(C(=O)N2CCc3ccc(OC(F)(F)F)cc32)c2ccc(Cl)cc2)c1 (racemic) [Compound 15, 4-(3-((1-(4-chlorophenyl)-2-oxo-2-(6-(trifluoromethoxy)indolin-1-yl)ethyl)amino)-5-methoxyphenyl)butanoic acid] | – | 25500 | 8.3 µM | – | 0.42 nM
4 | COc1cc(NC(C(=O)N2CCc3ccc(OC(F)(F)F)cc32)c2ccc(Cl)cc2)cc(OCC(C)CC(=O)O)c1 (single isomer, unassigned) [Compound 4A] | 2.9 nM | 3090 | 9 µM | – | –
5 | COc1cc(NC(C(=O)N2CCc3ccc(OC(F)(F)F)cc32)c2ccc(Cl)cc2)cc(OCCCCC(=O)O)c1 (single isomer, unassigned) [Compound 13A] | 1.4 nM | 5720 | 9.1 µM | – | –
6 | COc1cc(NC(C(=O)N2CCc3ccc(OC(F)(F)F)cc32)c2ccc(Cl)cc2)cc(OCCC(C)(C)C(=O)O)c1 (single isomer, unassigned) [Compound 2B] | 19 nM | 565 | – | 11 µM | –
7 | COc1cc(NC(C(=O)N2CCc3ccc(OC(F)(F)F)cc32)c2ccc(Cl)cc2OC)cc(OCCC(C)(C)C(=O)O)c1 (racemic) [Compound 18, 4-(3-((1-(4-chloro-2-methoxyphenyl)-2-oxo-2-(6-(trifluoromethoxy)indolin-1-yl)ethyl)amino)-5-methoxyphenoxy)-2,2-dimethylbutanoic acid] | – | 26100 | 11 µM | – | 0.49 nM
8 | COc1cc(NC2CC(C(=O)O)C2)cc(NC(C(=O)N2CCc3ccc(OC(F)(F)F)cc32)c2ccc(Cl)cc2)c1 (single isomer, unassigned) [Compound 33A] | 13 nM | 1110 | 17 µM | – | –
9 | COc1cc(NC(C(=O)N2CCc3ccc(OC(F)(F)F)cc32)c2ccc(Cl)cc2OC)cc(OCC2CC2C(=O)O)c1 (stereo not drawn) [Compound 19AA] | 10 nM | 1030 | 11 µM | – | –
10 | COc1cc(NC(C(=O)N2CCc3cc(OC)c(C(F)(F)F)cc32)c2ccc(Cl)cc2)cc(OCC2CC2C(=O)O)c1 (stereo not drawn) [Compound 22BA] | 15 nM | 786 | – | 12 µM | –
11 | COc1cc(NC(C(=O)N2CCc3ccc(OC(F)(F)F)cc32)c2ccc(Cl)cc2)cc(OCC2CC2C(=O)O)c1 (stereo not drawn) [Compound 6BA] | 12 nM | 703 | – | 8.7 µM | –
12 | COc1cc(NC(C(=O)N2CCc3ccc(OC(F)(F)F)cc32)c2ccc(Cl)cc2OC)cc(OCC2CC2C(=O)O)c1 (stereo not drawn) [Compound 19BA] | 16 nM | 707 | – | 11 µM | –
13 | COc1cc(NC(C(=O)N2CCc3cc(OC)c(C(F)(F)F)cc32)c2ccc(Cl)cc2)cc(OCC2CC(C(=O)O)C2)c1 (stereo not drawn) [Compound 24A] | 24 nM | 469 | – | 11 µM | –
14 | COc1cc(NC(C(=O)N2CCc3ccc(OC(F)(F)F)cc32)c2ccc(Cl)cc2)cc(OCC2(F)CC2C(=O)O)c1 (stereo not drawn) [Compound 28BA] | 17 nM | 574 | – | 10 µM | –
15 | COc1cc(NC(C(=O)N2CCc3ccc(OC(F)(F)F)cc32)c2ccc(Cl)cc2)cc(OCC2CC(C(=O)O)C2)c1 (stereo not drawn) [Compound 11, (1r,3r)-3-((3-((1-(4-chlorophenyl)-2-oxo-2-(6-(trifluoromethoxy)indolin-1-yl)ethyl)amino)-5-methoxyphenoxy)methyl)cyclobutanecarboxylic acid] | 0.13 nM | 97100 | – | 12 µM | –
16 | COc1cc(NC(C(=O)N2CCc3ccc(OC(F)(F)F)cc32)c2ccc(Cl)cc2)cc(OCCC(C)C(=O)O)c1 (single isomer, unassigned) [Compound 1A] | 18 nM | 523 | – | 9.6 µM | –
17 | COc1cc(NC(C(=O)N2CCc3ccc(OC(F)(F)F)cc32)c2ccc(Cl)cc2)cc(OCC2(CC(=O)O)CC2)c1 (single isomer, unassigned) [Compound 5B] | 11 nM | 921 | – | 10 µM | –
18 | COc1cc(NC2CC(C(=O)O)C2)cc(NC(C(=O)N2CCc3ccc(OC(F)(F)F)cc32)c2ccc(Cl)cc2)c1 (single isomer, unassigned) [Compound 33B] | 7.9 nM | 1760 | – | 14 µM | –
19 | COc1cc(NC(C(=O)N2CCc3ccc(OC(F)(F)F)cc32)c2ccc(Cl)cc2)cc(OCCC(C)C(=O)O)c1 (single isomer, unassigned) [Compound 1B] | 18 nM | 579 | – | 10 µM | –

Row | Structure (SMILES) | EC50 [1] | SI [1] | CC50 [2] | CC50 [3] | EC50 [1, 4]
20 | COc1cc(NC(C(=O)N2CCc3ccc(OC(F)(F)F)cc32)c2ccc(Cl)cc2)cc(OCC2(F)CC2C(=O)O)c1 (stereo not drawn) [Compound 29AA] | 61 nM | 151 | – | 9.2 µM | –
21 | COc1cc(NC(C(=O)N2CCc3cc(F)c(OC(F)(F)F)cc32)c2ccc(Cl)cc2)cc(OCC2CC(C(=O)O)C2)c1 (stereo not drawn) [Compound 31B] | 2.6 nM | 4400 | – | 12 µM | –
22 | COc1cc(NC(C(=O)N2CCc3ccc(OC(F)(F)F)cc32)c2ccc(Cl)cc2)cc(OCC2CC(C(=O)O)C2)c1 (stereo not drawn) [Compound 11A] | 3.8 nM | 2710 | – | 10 µM | –
23 | COc1cc(NC(C(=O)N2CCc3cc(OC)c(Cl)cc32)c2ccc(Cl)cc2)cc(OC2CC(C(=O)O)C2)c1 (single isomer, unassigned) [Compound 32A] | 63 nM | 205 | – | 13 µM | –
24 | COc1cc(NC(C(=O)N2CCc3cc(F)c(OC(F)(F)F)cc32)c2ccc(Cl)cc2)cc(OCC2CC2C(=O)O)c1 (single isomer, unassigned) [Compound 26B, (1 S*,2S*)-2-((3-((1-(4-chlorophenyl)-2-(5-fluoro-6-(trifluoromethoxy)indolin-1-yl)-2-oxoethyl)amino)-5-methoxyphenoxy)methyl)-cyclopropanecarboxylic Acid] | 0.94 nM | 10600 | – | 12 µM | –
25 | COc1cc(NC(C(=O)N2CCc3cc(OC)c(C(F)(F)F)cc32)c2ccc(Cl)cc2)cc(OCC2CC(C(=O)O)C2)c1 (stereo not drawn) [Compound 25A] | 7.1 nM | 1640 | – | 12 µM | –
26 | COc1cc(NC(C(=O)N2CCc3ccc(OC(F)(F)F)cc32)c2ccc(Cl)cc2)cc(OC2CC(C(=O)O)C2)c1 (stereo not drawn) [Compound 8A] | 0.86 nM | 11600 | – | 12 µM | –
27 | COc1cc(NC(C(=O)N2CCc3ccc(OC(F)(F)F)cc32)c2ccc(Cl)cc2)cc(OC2CC(C(=O)O)C2)c1 (stereo not drawn) [Compound 7A] | 9.1 nM | 1130 | – | 10 µM | –
28 | COc1cc(NC(C(=O)N2CCc3ccc(OC(F)(F)F)cc32)c2ccc(Cl)cc2)cc(OCC(C)CC(=O)O)c1 (single isomer, unassigned) [Compound 4B] | 11 nM | 935 | – | 10 µM | –
29 | COc1cc(NC(C(=O)N2CCc3ccc(OC(F)(F)F)cc32)c2ccc(Cl)cc2)cc(OC2CC(C(=O)O)C2)c1 (stereo not drawn) [Compound 8, (1s,3s)-3-(3-((1-(4-chlorophenyl)-2-oxo-2-(6-(trifluoromethoxy)indolin-1-yl)ethyl)amino)-5-methoxyphenoxy)cyclobutanecarboxylic acid] | 0.048 nM | >126733 | – | 13 µM | –
30 | COc1cc(NC(C(=O)N2CCc3cc(OC)c(C(F)(F)F)cc32)c2ccc(Cl)cc2)cc(OCCC(C)C(=O)O)c1 (single isomer, unassigned) [Compound 20B] | 180 nM | 69 | – | 12 µM | –
31 | COc1cc(NC(C(=O)N2CCc3ccc(OC(F)(F)F)cc32)c2ccc(Cl)cc2)cc(OCC2(F)CC2C(=O)O)c1 (stereo not drawn) [Compound 28AA] | 330 nM | 34 | – | 11 µM | –
32 | COc1cc(NC(C(=O)N2CCc3ccc(OC(F)(F)F)cc32)c2ccc(Cl)cc2)cc(OCC2CC(C(=O)O)C2)c1 (stereo not drawn) [Compound 10A] | 2.7 nM | 3790 | – | 10 µM | –
33 | COc1cc(NC(C(=O)N2CCc3cc(F)c(OC(F)(F)F)cc32)c2ccc(Cl)cc2)cc(OCC2CC(C(=O)O)C2)c1 (stereo not drawn) [Compound 30B] | 5.9 nM | 1800 | – | 11 µM | –
34 | COc1cc(NC(C(=O)N2CCc3cc(F)c(OC(F)(F)F)cc32)c2ccc(Cl)cc2)cc(OC2CC(C(=O)O)C2)c1 (single isomer, unassigned) [Compound 27A] | 0.41 nM | 14300 | – | 11 µM | –
35 | COc1cc(NC(C(=O)N2CCc3ccc(OC(F)(F)F)cc32)c2ccc(Cl)cc2OC)cc(OCCC(C)C(=O)O)c1 (single isomer, unassigned) [Compound 17B] | 180 nM | 59 | – | 11 µM | –
36 | COc1cc(NC(C(=O)N2CCc3ccc(OC(F)(F)F)cc32)c2ccc(Cl)cc2)cc(OCC2(F)CC2C(=O)O)c1 (stereo not drawn) [Compound 29BA] | 3.4 nM | 2890 | – | 9.8 µM | –
37 | COc1cc(CCCCC(=O)O)cc(NC(C(=O)N2CCc3ccc(OC(F)(F)F)cc32)c2ccc(Cl)cc2)c1 (single isomer, unassigned) [Compound 14B] | 60 nM | 156 | – | 9.3 µM | –
